# According to ChEMBL document CHEMBL1124186, “Synthesis and evaluation of tylosin-related macrolides modified at the aldehyde function: a new series of orally effective antibiotics” (1988):
# What was measured:
# Streptococcus pyogenes [1] = assay: In vivo effective dose against experimental infections in rodent caused by Streptococcus pyogenes C203 when administered sc; type: functional
# Streptococcus pyogenes [2] = assay: In vitro antimicrobial activity against Streptococcus pyogenes C203; type: functional
# Streptococcus pneumoniae = assay: In vitro antimicrobial activity against Streptococcus pneumoniae; type: functional
# [3] = test system: Staphylococcus epidermidis; assay: In vitro antimicrobial activity against Staphylococcus epidermidis EPI1; type: functional
# Streptococcus pyogenes [4] = assay: In vivo effective dose against experimental infections in rodent caused by Streptococcus pyogenes C203 when administered orally; type: functional; details: po
# Enterococcus faecium = assay: In vitro antimicrobial activity against Streptococcus faecium X66; type: functional, streptococcus fae-cium
# Staphylococcus aureus = assay: In vitro antimicrobial activity against Staphylococcus aureus X1; type: functional
# Haemophilus influenzae = assay: In vitro antimicrobial activity against Haemophilus influenzae.; type: functional
MIC (Streptococcus pyogenes [2]) [µg/mL],MIC (Streptococcus pneumoniae) [µg/mL],MIC [3] [µg/mL],MIC (Enterococcus faecium) [µg/mL],MIC (Staphylococcus aureus) [µg/mL],MIC (Haemophilus influenzae) [µg/mL],Compound,ED50 (Streptococcus pyogenes [1]) [mg/kg],ED50 (Streptococcus pyogenes [4]) [mg/kg]
2,2,0.5,16,0.5,16,CC[C@H]1OC(=O)C[C@@H](O)[C@H](C)[C@@H](O[C@@H]2O[C@H](C)[C@@H](O)[C@H](N(C)C)[C@H]2O)[C@@H](CCOc2cccnc2)C[C@@H](C)C(=O)/C=C/C(C)=C/[C@@H]1CO[C@@H]1O[C@H](C)[C@@H](O)[C@@H](OC)[C@H]1OC,3.9,50
0.5,4,0.25,16,0.5,32,CC[C@H]1OC(=O)C[C@@H](O)[C@H](C)[C@@H](O[C@@H]2O[C@H](C)[C@@H](O)[C@H](N(C)C)[C@H]2O)[C@@H](CCI)C[C@@H](C)C(=O)/C=C/C(C)=C/[C@@H]1CO[C@@H]1O[C@H](C)[C@@H](O)[C@@H](OC)[C@H]1OC,4.3,19
1,1,0.5,8,0.5,32,CC[C@H]1OC(=O)C[C@@H](O)[C@H](C)[C@@H](O[C@@H]2O[C@H](C)[C@@H](O)[C@H](N(C)C)[C@H]2O)[C@@H](CCOS(=O)(=O)c2ccc(C)cc2)C[C@@H](C)C(=O)/C=C/C(C)=C/[C@@H]1CO[C@@H]1O[C@H](C)[C@@H](O)[C@@H](OC)[C@H]1OC,3.1,5
2,2,4,64,8,32,CC[C@H]1OC(=O)C[C@@H](O)[C@H](C)[C@@H](O[C@@H]2O[C@H](C)[C@@H](O)[C@H](N(C)C)[C@H]2O)[C@@H](CCO)C[C@@H](C)C(=O)/C=C/C(C)=C/[C@@H]1CO[C@@H]1O[C@H](C)[C@@H](O)[C@@H](O)[C@H]1OC,8.9,> 100
4,4,2,32,2,32,CC[C@H]1OC(=O)C[C@@H](O)[C@H](C)[C@@H](O[C@@H]2O[C@H](C)[C@@H](O)[C@H](N(C)C)[C@H]2O)[C@@H](CCO)C[C@@H](C)C(=O)/C=C/C(C)=C/[C@@H]1CO[C@@H]1O[C@H](C)[C@@H](O)[C@@H](OC)[C@H]1OC,2.1,> 100
1,1,0.5,16,0.5,32,CCOC(=O)NN(CC[C@H]1C[C@@H](C)C(=O)/C=C/C(C)=C/[C@H](CO[C@@H]2O[C@H](C)[C@@H](O)[C@@H](OC)[C@H]2OC)[C@@H](CC)OC(=O)C[C@@H](O)[C@H](C)[C@H]1O[C@@H]1O[C@H](C)[C@@H](O)[C@H](N(C)C)[C@H]1O)C(=O)OCC,2.1,> 5

# The next lines start with the compound.
Compound,MIC (Streptococcus pyogenes [2]) [µg/mL],MIC (Streptococcus pneumoniae) [µg/mL],MIC [3] [µg/mL],MIC (Enterococcus faecium) [µg/mL],MIC (Staphylococcus aureus) [µg/mL],MIC (Haemophilus influenzae) [µg/mL],ED50 (Streptococcus pyogenes [1]) [mg/kg],ED50 (Streptococcus pyogenes [4]) [mg/kg]
CC[C@H]1OC(=O)C[C@@H](O)[C@H](C)[C@@H](O[C@@H]2O[C@H](C)[C@@H](O)[C@H](N(C)C)[C@H]2O)[C@@H](CCN2CCCCCCC2)C[C@@H](C)C(=O)/C=C/C(C)=C/[C@@H]1CO[C@@H]1O[C@H](C)[C@@H](O)[C@@H](O)[C@H]1OC,0.5,0.5,1,16,1,32,1.8,100
CC[C@H]1OC(=O)C[C@@H](O)[C@H](C)[C@@H](O[C@@H]2O[C@H](C)[C@@H](O)[C@H](N(C)C)[C@H]2O)[C@@H](CCOc2ccc(CN3CCCCCC3)cc2)C[C@@H](C)C(=O)/C=C/C(C)=C/[C@@H]1CO[C@@H]1O[C@H](C)[C@@H](O)[C@@H](OC)[C@H]1OC,0.5,1,0.5,8,0.5,32,1.9,27
CC[C@H]1OC(=O)C[C@@H](O)[C@H](C)[C@@H](O[C@@H]2O[C@H](C)[C@@H](O[C@H]3C[C@@](C)(O)[C@@H](O)[C@H](C)O3)[C@H](N(C)C)[C@H]2O)[C@@H](CCN2CCCCCCC2)C[C@@H](C)C(=O)/C=C/C(C)=C/[C@@H]1CO[C@@H]1O[C@H](C)[C@@H](O)[C@@H](OC)[C@H]1OC,2,8,4,> 128,4,128,> 10,44
CC[C@H]1OC(=O)C[C@@H](O)[C@H](C)[C@@H](O[C@@H]2O[C@H](C)[C@@H](O[C@H]3C[C@@](C)(O)[C@@H](O)[C@H](C)O3)[C@H](N(C)C)[C@H]2O)[C@@H](CCNCCc2ccccc2)C[C@@H](C)C(=O)/C=C/C(C)=C/[C@@H]1CO[C@@H]1O[C@H](C)[C@@H](O)[C@@H](OC)[C@H]1OC,1,8,2,128,1,64,9.1,76
CC[C@H]1OC(=O)C[C@@H](O)[C@H](C)[C@@H](O[C@@H]2O[C@H](C)[C@@H](O[C@H]3C[C@@](C)(O)[C@@H](O)[C@H](C)O3)[C@H](N(C)C)[C@H]2O)[C@@H](CCOc2ccccc2)C[C@@H](C)C(=O)/C=C/C(C)=C/[C@@H]1CO[C@@H]1O[C@H](C)[C@@H](O)[C@@H](O)[C@H]1OC,4,32,2,> 128,2,> 128,> 10,91
